One compound from US20160361330A1 (priority 2014, published 2016) can be followed below.

Test [1] relates to NiV (Nipah virus). Briefly: microbe, parasite or virus in culture. The note with it: Henipavirus nipahense, HeLa, read-out: EC50 (nM) Yield NiV Hela. The test is classed as cell-based.
The test system of test [2] is NiV-Luc (Nipah virus expressing the luciferase reporter gene). The experiment in a line: microbe, parasite or virus in culture. The test is classed as cell-based. The note with it: Henipavirus nipahense, read-out: EC50 (nM) Reporter Virus NiV Luc HMVEC-TERT.
Test [3] concerns MARV-GFP (Marburg virus expressing the GFP reporter gene). Briefly: organism not typed. The test is classed as cell-based. The note with it: Huh-7, read-out: EC50 (nM) Reporter Virus MARV-GFP Huh-7.
The test system of test [4] is NiV (Nipah virus). Briefly: microbe, parasite or virus in culture. The class given is cell-based. The note with it: Henipavirus nipahense, HeLa, read-out: EC50 (nM) CPE NiV Hela.
The subject of test [5] is NiV GFP (Nipah virus expressing the GFP reporter gene). The experiment in a line: microbe, parasite or virus in culture. The class given is cell-based. The note with it: Henipavirus nipahense, read-out: EC50 (nM) Reporter Virus NiV GFP HMVEC-TERT.
Test [6] relates to EBOV-Luc (Ebola virus expressing the luciferase reporter gene). The experiment in a line: microbe, parasite or virus in culture. The class given is cell-based. The note with it: Zaire ebolavirus, Huh-7, read-out: EC50 (nM) Reporter Virus EVOV-Luc Huh-7.
Test [7] deals with ebolavirus (EBOV) strain Zaire. The experiment in a line: organism not typed. The class given is cell-based, Ebola virus. The note with it: Macrophage, read-out: EC50 (nM) Antigen expression (high content imaging) Ebola Macrophage.
Test [8] deals with EBOV-GFP (Ebola virus expressing the GFP reporter gene). The experiment in a line: microbe, parasite or virus in culture. The class given is cell-based. The note with it: Zaire ebolavirus, Huh-7, read-out: EC50 (nM) Reporter Virus EBOV-GFP Huh-7.
Test [9] shares this test system. The experiment in a line: microbe, parasite or virus in culture. The test is classed as cell-based. The note with it: Zaire ebolavirus, read-out: EC50 (nM) Reporter Virus EBOV-GFP HMVEC-TERT.
Test [10] has as its system ebolavirus (EBOV) strain Zaire. The experiment in a line: organism not typed. The class given is cell-based, Ebola virus. The note with it: HeLa, read-out: EC50 (nM) Antigen expression (high content imaging) Ebola Hela.

Like-named read-outs stand apart in the source and are kept apart here.

On to `N#C[C@@]1(c2ccc3c(N)ncnn23)O[C@H](CO)[C@@H](O)[C@H]1O` [Compound 1, (2R, 3R, 4S, 5R)-2-(4-aminopyrrolo[1,2-f][1,2,4]triazin-7-yl)-3,4-dihydroxy-5-(hydroxymethyl)tetrahydrofuran-2-carbonitrile], for which the EC50 was found to be 1000 nM in the test on NiV (Nipah virus) [1]; 3500 nM in test [2]; 1730 nM in test [3]; 1480 nM in the test on NiV (Nipah virus) [4]; 13400 nM in test [5]; 3130 nM in [6]. Besides, the EC50 is over 20000 nM in [7], 1490 nM in [8], 771 nM in test [9] and over 20000 nM in [10].
